Molecular target: T1, human leukocyte elastase (HLE) (Homo sapiens, UniProt P08246)
T1 construct: purchased Elastin Product Company
T1 sequence (P08246 30-267): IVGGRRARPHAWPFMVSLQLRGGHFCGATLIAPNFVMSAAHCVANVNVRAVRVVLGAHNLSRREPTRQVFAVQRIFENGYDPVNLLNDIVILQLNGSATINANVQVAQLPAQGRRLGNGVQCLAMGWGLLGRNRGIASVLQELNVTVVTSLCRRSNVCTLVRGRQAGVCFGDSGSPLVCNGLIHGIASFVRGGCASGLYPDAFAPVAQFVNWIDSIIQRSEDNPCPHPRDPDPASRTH
Experiment: Kinetic parameters for HLE inhibition (fluorogenic substrate assay)
Type: biochemical
Details: 37° C., 0.027M pH 7.4 phosphate buffer, substrate N-methoxysuccinyl-alanyl-prolyl-valyl-7-amido-4-methylcoumarin; for Ki: read-out: "Potency" Ki^ss (apparent dissociation constant of the HLE-inhibitor complex at steady state)
Protocol: The compounds of the present invention are characterized by high inhibitory activity on elastases, especially human leukocyte elastase (HLE). […] These efficacy parameters for HLE inhibition, Ki^ss and k5/Ki, are defined in the equation below, representing the interaction of the enzyme (E) with the compounds (I), which is monitored (see Protocol) in the presence of a […] enzyme substrate (S): [formula]
Kinetic parameters of HLE (Elastin Product Company) were determined at 37° C., 0.027M pH 7.4 phosphate buffer, […], 1% MeCN, NaCl (I=0.15), by monitoring the release of 7-amino-4-methylcoumarin (fluorescence detection) from N-methoxysuccinyl-alanyl-prolyl-valyl-7-amido-4-methylcoumarin as the substrate, according to the equations: [formula]
Full details of the Experimental Protocol are reported in M. Alpegiani et al., Eur. J. Med. Chem. 1992, 27, 875-890.

Q: With `CO[C@H]1C(=O)N2C(C(=O)N3CCCC3)=C(C)C(OC(=O)c3c(C)cc(C)cc3C)S(=O)(=O)[C@H]12` (stereo partly drawn) [Compound No. 1, 2,4,6-Trimethylbenzoic Acid (6R,7S)-7-methoxy-3-methyl-5,5,8-trioxo-2-(pyrrolidine-1-carbonyl)-5-thia-1-aza-bicyclo[4.2.0] oct-2-en-4-yl Ester] as the molecule, how does the “"Efficiency" k5/Ki (rate of formation of the HLE-inhibitor complex)” value read?
A: The value was 800,000 M^−1s^−1.

Q: What about the Ki of the same molecule?
A: Its Ki is less than 2 nM.

Q: `CO[C@H]1C(=O)N2C(C(=O)N3CCCC3)=C(CSc3nc(=O)c(=O)[nH]n3C)CS(=O)(=O)[C@H]12` [Reference, reference compound] was tested. Which “"Efficiency" k5/Ki (rate of formation of the HLE-inhibitor complex)” value did it give?
A: Its value is 9,200 M^−1s^−1.

Q: What about the Ki of the same molecule?
A: The Ki was 100 nM.

Q: With `CO[C@H]1C(=O)N2C(C(=O)N3CCCC3)=C(C)C(Sc3nc(=O)c(O)nn3C)S(=O)(=O)[C@H]12` (stereo partly drawn) [Compound No. 11, (6R,7S)-4-(6-Hydroxy-2-methyl-5-oxo-2,5-dihydro-[1,2,4]triazin-3-yl-sulfanyl)-7-methoxy-3-methyl-5,5-dioxo-2-(pyrrolidine-1-carbonyl)-5-thia-1-aza-bicyclo [4.2.0]oct-2-en-8-one] as the molecule, how does the “"Efficiency" k5/Ki (rate of formation of the HLE-inhibitor complex)” value read?
A: Its value is 27,000 M^−1s^−1.

Q: And the Ki?
A: Its Ki is 20 nM.

Reference: patent publication US20010011085A1, “4-SUBSTITUTED CEPHEM DERIVATIVES AS ELASTASE INHIBITORS” (priority 1995, published 2001)
